Columns and labels:
[1] = Murine diet-induced obesity (DIO) model, Compounds B-D study; format: in vivo, C57BL/6J mice; details: DIO mice
Experimental: The effects of four representative compounds of the invention were tested in a mouse model of diet-induced obesity (DIO): • Compound A is (R)—N-(tert-butylsulfonyl)-4-(1-(5-(pyridin-3-yloxy)pyridin-2-yl)ethoxy)-3-(trifluoromethyl)benzamide; • Compound B is (R)-4-(1-(5-(cyclopropylmethoxy)pyridin-2-yl)propoxy)-N-((4-(2-(dimethylamino)ethoxy)phenyl)sulfonyl)-2,3-difluorobenzamide; • Compound C is (R)—N-((4-(2-(dimethylamino)ethoxy)piperidin-1l-yl)sulfonyl)-2,3-difluoro-4-(1-(5-(pyridin-2-yloxy)pyridin-2-yl)propoxy)benzamide; and • Compound D is (R)-2,3-difluoro-N-((4-methylpiperazin-1-yl)sulfonyl)-4-(1-(5-(pyridin-2-yloxy)pyridin-2-yl)propoxy)benzamide.
The mice used in these experiments were C57BL/6J mice fed a high-fat diet (D12492 from Research Diets) ad libitum during the study period. The vehicle and test article formulations were 10% w/v Solutol in water.
In this study, three compounds tested at 30 mg/kg were compared against vehicle control over a month. After their acclimation period, DIO mice were equally divided into groups of ten mice each based on body weight. The animals were pre-dosed for three days prior to formal dosing (once per day treatment every group), as well as weight and food intake were recorded from Day −2 onwards. From Day 1 to Day 27, the animals in the dosing group were administered orally by gavage at 5:00 p.m. every day. All animals were fasted overnight after dosing on Day 28 and Day 29. Then the blood (retro-orbital bleed) of mice from each group was collected at 7:00 a.m. to separate out the serum for measuring total cholesterol levels (TC), triglyceride (TG), aminotransferase alanine (ALT), aspartate aminotransferase (AST) and total bilirubin (TBil) levels on Day 29. On day 30, all animals were performed OGTT test (0 min, 15 min, 30 min, 60 min, 90 min and 120 min) and measured insulin levels (0 min, 15 min, 30 min and 60 min). On day 32, all animals were injected insulin after 4 hours fasting, then performed ITT test (0 min, 15 min, 30 min, 60 min and 90 min). On day 33, Epididymal white adipose tissue (eWAT), jejunum, liver, heart and brain were collected; eWAT, liver and heart weights were recorded. All of the adipose tissue in the abdominal cavity was collected and weighted, and the fatty tissue coefficient (body fat ratio) was calculated and then stored at −80° C. for inspection.
• 1. Body weight and Food Consumption: Pre-dose every day from Day −2 onwards. • 2. Day −2,—1 and Day 0: Handle mice and gavage with vehicle. • 3. Day 1˜27: Dose˜5:00 PM. • 4. Day 28: Dose˜5:00 PM. Fast overnight. • 5. Day 29: Determine total cholesterol levels and triglyceride, ALT, AST, total bilirubin levels˜7:00 AM. Resume feeding. • 6. Day 29: Dose˜5:00 PM. Fast overnight. • 7. Day 30: (No drug administration) Oral glucose tolerance test (OGTT) with glucose levels measured at Pre-dose, 15 min, 30 min, 60 min, 90 min and 120 min after the glucose challenge. And insulin levels will be test at time 0 min, 15 min, 30 min and 60 min after the glucose challenge. • 8. Day 30˜31: Dose˜5:00 PM. • 9. Day 32: (No drug administration) ITT test (two days after the OGTT test): Fast 4 h. After insulin injection, the levels of glucose will be measured at Pre-dose, 15 min, 30 min, 60 min and 90 min. • 10. After the ITT test. Collect serum with a terminal bleed from all 50 mice. • 11. Collect epidydimal WAT (eWAT) pad, jejunum, liver, heart, and brain. • 12. Record eWAT, liver, and heart weights. • 13. Before freezing tissue/serum: • (i) Assess Drug Concentration; serum, liver, eWAT, heart, jujenum, and brain. (25 serum samples; 5 mice/group will progress to biomarker study and remaining 25 serum samples saved for future analysis). • 14. Prepare liver, heart and eWAT tissue for histopathology analysis. • (ii) Liver for all 50 mice; HE staining to assess liver steatosis. • (iii) Heart or all 50 mice; HE and DAPI staining to assess cardiac morphology. […]

hACSL5 = hACSL5 (Homo sapiens (Human), UniProt Q9ULC5); assay: Human ACSL5 coupled enzyme Amplex Red assay; format: biochemical; details: read-out: hACSL5 IC50
Procedure, shortened: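 Amplex Red coupled readout: 1 mM ATP, 25 μM oleate and 30 μM CoA were added to compound-preincubated enzyme (20 nM, residues 33-683, insect-cell expressed, His-tagged) with coupling peroxidase and acyl-CoA oxidase at pH 7.6. Signal was read at 535/590 nm after 10 minutes at 25° C., and Hill fits yielded half-maximal and maximal inhibition.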

hACSL5, sequence (Q9ULC5 33-683): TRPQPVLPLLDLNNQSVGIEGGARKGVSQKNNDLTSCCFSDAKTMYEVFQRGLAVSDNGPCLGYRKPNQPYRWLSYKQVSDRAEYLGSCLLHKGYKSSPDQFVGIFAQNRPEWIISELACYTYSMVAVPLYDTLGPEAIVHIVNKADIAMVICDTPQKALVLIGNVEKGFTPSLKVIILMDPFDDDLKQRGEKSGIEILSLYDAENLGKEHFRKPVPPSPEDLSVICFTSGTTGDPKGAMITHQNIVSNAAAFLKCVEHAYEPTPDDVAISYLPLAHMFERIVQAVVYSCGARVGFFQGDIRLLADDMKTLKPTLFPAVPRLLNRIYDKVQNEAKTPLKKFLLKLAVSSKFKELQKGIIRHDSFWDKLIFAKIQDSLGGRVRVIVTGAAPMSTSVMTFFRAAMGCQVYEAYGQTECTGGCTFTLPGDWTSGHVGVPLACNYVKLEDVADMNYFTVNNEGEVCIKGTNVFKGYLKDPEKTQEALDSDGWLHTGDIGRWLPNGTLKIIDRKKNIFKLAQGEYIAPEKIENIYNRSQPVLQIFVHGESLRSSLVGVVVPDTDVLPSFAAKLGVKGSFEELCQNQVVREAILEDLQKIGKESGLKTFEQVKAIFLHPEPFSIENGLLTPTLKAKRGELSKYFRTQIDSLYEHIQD

## CC[C@@H](Oc1ccc(C(=O)NS(=O)(=O)c2ccc(OCCN(C)C)cc2)c(F)c1F)c1ccc(OCC2CC2)cn1 [Compound B, (R)-4-(1-(5-(cyclopropylmethoxy)pyridin-2-yl)propoxy)-N-((4-(2-(dimethylamino)ethoxy)phenyl)sulfonyl)-2,3-difluorobenzamide]
[1]; 30 mg/kg oral daily
  mean body weight versus control group: significantly lower than that of the control group from Day 15 to the end
  overall food consumption versus control group: significantly lower than that of the control group
[1]; 30 mg/kg oral daily, Day 1
  Body Weight (g)/Day: 42.2 ± 4.7 g
[1]; 30 mg/kg oral daily, Day 2
  Body Weight (g)/Day: 42.2 ± 4.5 g
[1]; 30 mg/kg oral daily, Day 3
  Body Weight (g)/Day: 42.3 ± 4.7 g
[1]; 30 mg/kg oral daily, Day 4
  Body Weight (g)/Day: 43 ± 3.9 g
[1]; 30 mg/kg oral daily, Day 5
  Body Weight (g)/Day: 43.1 ± 3.9 g
[1]; 30 mg/kg oral daily, Day 6
  Body Weight (g)/Day: 43 ± 4.1 g
[1]; 30 mg/kg oral daily, Day 7
  Body Weight (g)/Day: 42.8 ± 4 g
[1]; 30 mg/kg oral daily, Day 8
  Body Weight (g)/Day: 43.1 ± 4.3 g
[1]; 30 mg/kg oral daily, Day 9
  Body Weight (g)/Day: 42.9 ± 4.5 g
[1]; 30 mg/kg oral daily, Day 10
  Body Weight (g)/Day: 43.3 ± 4.5 g
[1]; 30 mg/kg oral daily, Day 11
  Body Weight (g)/Day: 43.1 ± 4.6 g
[1]; 30 mg/kg oral daily, Day 12
  Body Weight (g)/Day: 42.7 ± 4.6 g
[1]; 30 mg/kg oral daily, Day 13
  Body Weight (g)/Day: 42.5 ± 4.6 g
[1]; 30 mg/kg oral daily, Day 14
  Body Weight (g)/Day: 42.3 ± 4.6 g
[1]; 30 mg/kg oral daily, Day 15
  Body Weight (g)/Day: 42.6 ± 4.5 g
[1]; 30 mg/kg oral daily, Day 16
  Body Weight (g)/Day: 42.5 ± 4.5 g
[1]; 30 mg/kg oral daily, Day 17
  Body Weight (g)/Day: 41.7 ± 4.6 g
[1]; 30 mg/kg oral daily, Day 18
  Body Weight (g)/Day: 42.1 ± 4.8 g
[1]; 30 mg/kg oral daily, Day 19
  Body Weight (g)/Day: 42.2 ± 4.7 g
[1]; 30 mg/kg oral daily, Day 20
  Body Weight (g)/Day: 42.2 ± 4.5 g
[1]; 30 mg/kg oral daily, Day 21
  Body Weight (g)/Day: 42.3 ± 4.7 g
[1]; 30 mg/kg oral daily, Day 22
  Body Weight (g)/Day: 42.4 ± 4.7 g
[1]; 30 mg/kg oral daily, Day 23
  Body Weight (g)/Day: 42.6 ± 4.7 g
[1]; 30 mg/kg oral daily, Day 24
  Body Weight (g)/Day: 42.6 ± 4.4 g
[1]; 30 mg/kg oral daily, Day 25
  Body Weight (g)/Day: 42.5 ± 4.8 g
[1]; 30 mg/kg oral daily, Day 26
  Body Weight (g)/Day: 42.8 ± 4.7 g
[1]; 30 mg/kg oral daily, Day 27
  Body Weight (g)/Day: 43 ± 4.8 g
[1]; 30 mg/kg oral daily, Day 28
  Body Weight (g)/Day: 42.9 ± 4.7 g
[1]; 30 mg/kg oral daily, Day 29
  Body Weight (g)/Day: 42.3 ± 4.4 g
[1]; 30 mg/kg oral daily, Day 30
  Body Weight (g)/Day: 40.4 ± 4.2 g
[1]; 30 mg/kg oral daily, Day 31
  Body Weight (g)/Day: 40.9 ± 4.2 g
[1]; 30 mg/kg oral daily, Day 32
  Body Weight (g)/Day: 40.3 ± 4.1 g
[1]; 30 mg/kg, Day 0 (pre-dose)
  Body Weight (g)/Day: 42.1 ± 4.8 g
[1]; 30 mg/kg, Day 33
  eWAT coefficient versus control group: slightly lower than that of the control group
[1]; 30 mg/kg, Day −1 (pre-dose)
  Body Weight (g)/Day: 41.7 ± 4.6 g
[1]; 30 mg/kg, Day −2 (pre-dose)
  Body Weight (g)/Day: 42.5 ± 4.5 g
[1]; 30 mg/kg, abdominal adipose tissue
  mean adipose weights versus control group: significantly lower than that of the control group
[1]; Day 32, at 30 minutes and 60 minutes after insulin
  ITT blood glucose versus control group: significantly lower than that of the control group
hACSL5
  IC50: < 100 nM

Reference: US20250275959A1, “COMPOUNDS AND METHODS OF THEIR USE” (LEXICON PHARMACEUTICALS, INC., priority 2024, published 2025)
